Results reported in ChEMBL document CHEMBL1201862, “PubChem BioAssay data set” (2004).
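Protocol summary: plate cells (96-well), add compound at 5 concentrations, incubate 48 h, interpolate endpoints linearly. GI50 = concentration required for 50% inhibition of growth.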 Calls of active or inactive are those of the source. No stated cut-off is given here; in the data, active = GI50 up to about 1.1 µM and inactive = higher.

Assays:
Assay in all cases: growth of human tumour cells (NCI), 48 h
[1] = test system: 786-0
[2] = test system: ACHN
[3] = test system: DU-145
[4] = test system: HOP-92
[5] = test system: HT-29
[6] = test system: IGROV-1
[7] = test system: NCI-H226
[8] = test system: NCI-H522
[9] = test system: OVCAR-5
[10] = test system: SF-539
[11] = test system: SK-MEL-28
[12] = test system: SK-MEL-5
[13] = test system: SK-OV-3
[14] = test system: SN12C
[15] = test system: SNB-19
[16] = test system: SNB-75
[17] = test system: SR
[18] = test system: U-251
[19] = test system: UACC-257
[20] = test system: Malme-3M

SMILES	GI50 [1]	GI50 [2]	GI50 [3]	GI50 [4]	GI50 [5]	GI50 [6]	GI50 [7]	GI50 [8]	GI50 [9]	GI50 [10]	GI50 [11]	GI50 [12]	GI50 [13]	GI50 [14]	GI50 [15]	GI50 [16]	GI50 [17]	GI50 [18]	GI50 [19]	GI50 [20]
CC(C)(C)CC(N)=O	> 100 µM (inactive)	> 100 µM (inactive)	> 100 µM (inactive)	> 100 µM (inactive)	> 100 µM (inactive)	> 100 µM (inactive)	> 100 µM (inactive)	> 100 µM (inactive)	> 100 µM (inactive)	> 100 µM (inactive)	> 100 µM (inactive)	> 100 µM (inactive)	> 100 µM (inactive)	> 100 µM (inactive)	> 100 µM (inactive)	> 100 µM (inactive)	> 100 µM (inactive)	> 100 µM (inactive)	> 100 µM (inactive)	
Cc1cn(C2CC(n3cc(Cn4ccc(=O)[nH]c4=O)nn3)C(CO)O2)c(=O)[nH]c1=O (stereo not drawn)		> 100 µM (inactive)	> 100 µM (inactive)	> 100 µM (inactive)			> 100 µM (inactive)		> 100 µM (inactive)	> 100 µM (inactive)	> 100 µM (inactive)	> 100 µM (inactive)	49 µM (inactive)	> 100 µM (inactive)	> 100 µM (inactive)	> 100 µM (inactive)	< 0.01 µM (active)	> 100 µM (inactive)	> 100 µM (inactive)	
CCOC(=O)/C=C(\C(=O)OCC)n1cc(C)c(=O)n(Cc2cn(COCCOC(C)=O)nn2)c1=O	5.46 µM (inactive)	7.62 µM (inactive)	34.9 µM (inactive)	1.61 µM (inactive)	7.33 µM (inactive)	16.7 µM (inactive)	> 10 µM (inactive)		14.5 µM (inactive)	3.61 µM (inactive)	10.5 µM (inactive)	20.9 µM (inactive)	71.8 µM (inactive)	18.1 µM (inactive)	19 µM (inactive)	21 µM (inactive)	1.44 µM (inactive)	16.8 µM (inactive)	17.4 µM (inactive)	
CC1CNC(c2ccc3c(c2)Cc2cc(C4=NC(C)CN4)ccc2-3)=N1 (stereo not drawn)	54.3 µM (inactive)	> 100 µM (inactive)	65.8 µM (inactive)	> 100 µM (inactive)	61.2 µM (inactive)	> 100 µM (inactive)	55.7 µM (inactive)	22.2 µM (inactive)	> 100 µM (inactive)		87.1 µM (inactive)	71.8 µM (inactive)	37.9 µM (inactive)	48.1 µM (inactive)	36.6 µM (inactive)	54.2 µM (inactive)	42.9 µM (inactive)	19.4 µM (inactive)	32.6 µM (inactive)	19.2 µM (inactive)
COc1ccc(N2C(=O)/C(=C\c3cc(OC)c(OC)c(OC)c3)SC2c2ccccc2)cc1 (stereo not drawn)	> 100 µM (inactive)	62.4 µM (inactive)	> 100 µM (inactive)	> 100 µM (inactive)	> 100 µM (inactive)		> 100 µM (inactive)	16.6 µM (inactive)	> 100 µM (inactive)	> 100 µM (inactive)	> 100 µM (inactive)	23.7 µM (inactive)	81.7 µM (inactive)	> 100 µM (inactive)	> 100 µM (inactive)		28.4 µM (inactive)	56.5 µM (inactive)	57.3 µM (inactive)	54.6 µM (inactive)
CC1=CN(c2ccccc2)S2=C1c1sc3c(c1N2c1ccc(Br)cc1)CCCC3 (stereo not drawn)	> 100 µM (inactive)	> 100 µM (inactive)	> 100 µM (inactive)	> 100 µM (inactive)	> 100 µM (inactive)	> 100 µM (inactive)	> 100 µM (inactive)	> 100 µM (inactive)	96.8 µM (inactive)	> 100 µM (inactive)	> 100 µM (inactive)	> 100 µM (inactive)	> 100 µM (inactive)	> 100 µM (inactive)	> 100 µM (inactive)		> 100 µM (inactive)	> 100 µM (inactive)	> 100 µM (inactive)	
OCCCCn1cc(Cn2ncc3c(NCc4ccccc4)ncnc32)nn1	> 100 µM (inactive)	> 100 µM (inactive)	> 100 µM (inactive)	> 100 µM (inactive)	> 100 µM (inactive)	> 100 µM (inactive)	> 100 µM (inactive)	> 100 µM (inactive)	> 100 µM (inactive)	> 100 µM (inactive)	> 100 µM (inactive)	> 100 µM (inactive)	> 100 µM (inactive)	> 100 µM (inactive)	> 100 µM (inactive)		15.9 µM (inactive)	> 100 µM (inactive)	> 100 µM (inactive)	> 100 µM (inactive)
CCOC(=O)C(C(=O)OCC)C(=S)NC1OC(COC(C)=O)C(OC(C)=O)C(OC(C)=O)C1OC(C)=O (stereo not drawn)	> 100 µM (inactive)		> 100 µM (inactive)	> 100 µM (inactive)	> 100 µM (inactive)	> 100 µM (inactive)	> 100 µM (inactive)	> 100 µM (inactive)	> 100 µM (inactive)	> 100 µM (inactive)	> 100 µM (inactive)	> 100 µM (inactive)	> 100 µM (inactive)	> 100 µM (inactive)	> 100 µM (inactive)		> 100 µM (inactive)	> 100 µM (inactive)	> 100 µM (inactive)	> 100 µM (inactive)
CC(=O)OCC(=O)OC[C@H](OCc1ccccc1)[C@@H]1[C@H](OC(C)=O)C(=O)N1Cc1ccccc1	> 100 µM (inactive)	> 100 µM (inactive)	> 100 µM (inactive)	> 100 µM (inactive)	> 100 µM (inactive)	> 100 µM (inactive)	> 100 µM (inactive)		> 100 µM (inactive)		> 100 µM (inactive)	> 100 µM (inactive)	> 100 µM (inactive)	> 100 µM (inactive)	> 100 µM (inactive)	> 100 µM (inactive)	> 100 µM (inactive)	> 100 µM (inactive)	> 100 µM (inactive)	> 100 µM (inactive)
CCOC(=O)N1CCN(Cc2cc(=O)n3cc(C)ccc3n2)CC1	> 100 µM (inactive)	> 100 µM (inactive)	> 100 µM (inactive)	> 100 µM (inactive)	> 100 µM (inactive)	> 100 µM (inactive)	> 100 µM (inactive)	> 100 µM (inactive)	> 100 µM (inactive)	> 100 µM (inactive)	> 100 µM (inactive)		> 100 µM (inactive)	> 100 µM (inactive)	> 100 µM (inactive)	> 100 µM (inactive)	> 100 µM (inactive)	> 100 µM (inactive)	> 100 µM (inactive)	> 100 µM (inactive)
CCN(CC)c1ccc2nc3ccc(/N=N/c4c(O)ccc5ccccc45)cc3[n+](-c3ccccc3)c2c1	> 100 µM (inactive)	> 100 µM (inactive)	> 100 µM (inactive)	> 100 µM (inactive)	> 100 µM (inactive)	> 100 µM (inactive)	> 100 µM (inactive)	> 100 µM (inactive)	> 100 µM (inactive)		> 100 µM (inactive)	> 100 µM (inactive)	> 100 µM (inactive)	> 100 µM (inactive)	> 100 µM (inactive)	> 100 µM (inactive)	1.47 µM (inactive)	> 100 µM (inactive)	> 100 µM (inactive)	> 100 µM (inactive)
Cc1ccc(SCC(CSCCO)OCn2cnc3c2N=C(N)NC32OCCO2)cc1 (stereo not drawn)	> 100 µM (inactive)	> 100 µM (inactive)	> 100 µM (inactive)	> 100 µM (inactive)	> 100 µM (inactive)	> 100 µM (inactive)		> 100 µM (inactive)	> 100 µM (inactive)	> 100 µM (inactive)	> 100 µM (inactive)	> 100 µM (inactive)	> 100 µM (inactive)		> 100 µM (inactive)	> 100 µM (inactive)	> 100 µM (inactive)	> 100 µM (inactive)	> 100 µM (inactive)	> 100 µM (inactive)
Cc1ccc2c(ccc3c[n+]4ccccc4c(C)c32)c1.[O-][Cl+3]([O-])([O-])[O-]	2.51 µM (inactive)	6.7 µM (inactive)	1.13 µM (inactive)	4.1 µM (inactive)	6.15 µM (inactive)	8.04 µM (inactive)	1.28 µM (inactive)	1.59 µM (inactive)	10.5 µM (inactive)	2.3 µM (inactive)	3.17 µM (inactive)	1.1 µM (active)	10.3 µM (inactive)	0.402 µM (active)	0.451 µM (active)		1.21 µM (inactive)	0.581 µM (active)	1.34 µM (inactive)	1.32 µM (inactive)
C[n+]1ccccc1/C1=c2\cc/c([nH]2)=C(\c2cccc[n+]2C)C2=N/C(=C(/c3cccc[n+]3C)C3C=CC(N3)/C(c3cccc[n+]3C)=C3/C=CC1=N3)C=C2	> 100 µM (inactive)	> 100 µM (inactive)	> 100 µM (inactive)	90.6 µM (inactive)	39.3 µM (inactive)	92.9 µM (inactive)	> 100 µM (inactive)	> 100 µM (inactive)	> 100 µM (inactive)	> 100 µM (inactive)	> 100 µM (inactive)	71.4 µM (inactive)	> 100 µM (inactive)	> 100 µM (inactive)	> 100 µM (inactive)		15.6 µM (inactive)	> 100 µM (inactive)	> 100 µM (inactive)	> 100 µM (inactive)
COc1cc([C@@H]2c3cc4c(cc3C[C@H]3COC(=O)[C@@H]32)OCO4)cc(OC)c1OC [DESOXYPODOPHYLLOTOXIN]	0.00372 µM (active)	0.00393 µM (active)	0.00273 µM (active)	0.199 µM (active)		0.0103 µM (active)	0.00733 µM (active)		> 10.8 µM (inactive)		0.0125 µM (active)	0.00791 µM (active)	0.0803 µM (active)	0.00995 µM (active)	0.0092 µM (active)	0.0655 µM (active)	0.00376 µM (active)	0.00634 µM (active)	0.00828 µM (active)	0.0149 µM (active)
